# Measurements as given in US20160090351A1, “INHIBITORS OF DEUBIQUITINATING PROTEASES” (BRANDEIS UNIVERSITY, priority 2013, published 2016).
# Read-outs that look alike come from different tables or passages of the source.
# Assays:
# [1] = tested on: DUBs; experiment: decomposition of high molecular weight ubiquitinated proteins (HMW-Ub) in lysates of HEK 293T cells expressing HA-Ub; assay type: biochemical, human; conditions: for stabilization of the HMW-Ub pool: HEK 293T HA-Ub lysates, 37° C.; for DUB inhibitory activity, SAR in words: relative to C4 or parent analog
# Procedure: FIG. 30 depicts data showing that diphenylcarbonates inhibit the decomposition of high molecular weight ubiquitinated proteins (HMW-Ub). Lysates were prepared from HEK 293T cells expressing HA-ubiquitin. Samples were incubated at 37° C. and reactions were quenched by the addition of reducing Laemmli buffer. HMW-Ub was assessed by SDS-PAGE and immunoblotting with anti-HA antibody. A. Representative immunoblots measuring the decomposition of HMW-Ub in lysates treated with either the DMSO vehicle, G5 (10 μM) or C4 (500 μM). B. Plot of the decomposition of HMW-Ub in lysates treated with DMSO and C4 (500 μM) (N=2; error bars denote range). C. Inhibition of HMW-Ub decomposition by diphenylcarbonates. Lysates were treated with diphenylcarbonates (50 μM). “-” denotes no treatment; D, 1% DMSO vehicle; IU1, an USP14-specific inhibitor; Bort, bortezomib, a proteasome inhibitor. D. Representative decomposition of HMW-Ub after 2 h incubation in the presence of varying concentrations of C4. See also FIG. 36. E. Quantitation of D. The values of EC50 reported in FIG. 29B are the average and S.E.M. of at least 3 independent experiments. See also FIG. 37 and FIG. 38.
# Cells overexpressing HA-ubiquitin were prepared as above. Pellets were typically stored at −80° C. until required, at which time they were thawed on ice. Cell lysis was performed in lysis buffer using a Dounce homogenizer (10 strokes, with grinding, on ice: typical yield approx. 2-5 mg protein per transfected T75 flask for HEK 293T cells; 1-3 mg protein from a T75 flask for Cos-1). Crude lysate was centrifuged at 17000 g for 10 min at 4° C., after which time the concentration of the lysate was normalized to 1 mg/mL. The lysate was aliquoted into PCR strip tubes (typical volumes 75-50 μL) and compound in DMSO was added to this to give a final concentration of DMSO of 1%. Tubes were briefly centrifuged, overlaid with Chill-out wax (50 μL) and placed in a PCR machine at 37° C. with heated lid set to 37° C. Aliquots (9 μL) were removed at the stated times and immediately quenched in (2× final concentration) reducing (dithiothreitol) loading buffer and frozen (−19° C.) till required. Western blot analysis was carried out using standard methods. Samples were resolved by SDS-PAGE, transferred to PVDF [(0.45 μm) (Towbin buffer, tank apparatus, 90 V 1 hour, then overnight at 30 V, 4° C.)] then blocked in 15% milk in TBS-T HS (100 mM Tris HCl, pH 7.6, 500 mM NaCl, 0.5% […]) for at least 2 hours at RT. Afterward, membrane was washed in TBS-T HS then probed with anti HA-HRP (1:18000) for 1.33 hours at RT. Membrane was washed 3 times in TBS-T HS (15 mins) then once in TBS (15 mins) and exposed to ECL II and visualized using blue biofilm. […] When required, membranes were stripped in 100 mM glycine pH 4, 500 mM NaCl, 1% SDS, 5 mM BME, at 55° C. for 19 mins, then analyzed.
# Lysates were prepared from HEK 293T cells expressing N-terminally HA-tagged ubiquitin (HA-Ub) to facilitate the observation of ubiquitinated proteins. In the absence of a DUB inhibitor, the HMW-Ub pool decomposed with a half-life of 34 min (FIG. 30A,B). […] Similar results were obtained in lysates prepared from Cos-1 cells expressing HA-Ub.
# [2] = target: T1, USP9x (Homo sapiens, UniProt Q93008); experiment: HA-Ub-VS labeling in K562 cell lysates; assay type: biochemical; conditions: compound 40 minutes, then HA-Ub-VS (1.5 μM) 20 minutes
# T1 construct: endogenous in cells; host or cells: K562 cell lysate
# T1 sequence (Q93008 whole entry): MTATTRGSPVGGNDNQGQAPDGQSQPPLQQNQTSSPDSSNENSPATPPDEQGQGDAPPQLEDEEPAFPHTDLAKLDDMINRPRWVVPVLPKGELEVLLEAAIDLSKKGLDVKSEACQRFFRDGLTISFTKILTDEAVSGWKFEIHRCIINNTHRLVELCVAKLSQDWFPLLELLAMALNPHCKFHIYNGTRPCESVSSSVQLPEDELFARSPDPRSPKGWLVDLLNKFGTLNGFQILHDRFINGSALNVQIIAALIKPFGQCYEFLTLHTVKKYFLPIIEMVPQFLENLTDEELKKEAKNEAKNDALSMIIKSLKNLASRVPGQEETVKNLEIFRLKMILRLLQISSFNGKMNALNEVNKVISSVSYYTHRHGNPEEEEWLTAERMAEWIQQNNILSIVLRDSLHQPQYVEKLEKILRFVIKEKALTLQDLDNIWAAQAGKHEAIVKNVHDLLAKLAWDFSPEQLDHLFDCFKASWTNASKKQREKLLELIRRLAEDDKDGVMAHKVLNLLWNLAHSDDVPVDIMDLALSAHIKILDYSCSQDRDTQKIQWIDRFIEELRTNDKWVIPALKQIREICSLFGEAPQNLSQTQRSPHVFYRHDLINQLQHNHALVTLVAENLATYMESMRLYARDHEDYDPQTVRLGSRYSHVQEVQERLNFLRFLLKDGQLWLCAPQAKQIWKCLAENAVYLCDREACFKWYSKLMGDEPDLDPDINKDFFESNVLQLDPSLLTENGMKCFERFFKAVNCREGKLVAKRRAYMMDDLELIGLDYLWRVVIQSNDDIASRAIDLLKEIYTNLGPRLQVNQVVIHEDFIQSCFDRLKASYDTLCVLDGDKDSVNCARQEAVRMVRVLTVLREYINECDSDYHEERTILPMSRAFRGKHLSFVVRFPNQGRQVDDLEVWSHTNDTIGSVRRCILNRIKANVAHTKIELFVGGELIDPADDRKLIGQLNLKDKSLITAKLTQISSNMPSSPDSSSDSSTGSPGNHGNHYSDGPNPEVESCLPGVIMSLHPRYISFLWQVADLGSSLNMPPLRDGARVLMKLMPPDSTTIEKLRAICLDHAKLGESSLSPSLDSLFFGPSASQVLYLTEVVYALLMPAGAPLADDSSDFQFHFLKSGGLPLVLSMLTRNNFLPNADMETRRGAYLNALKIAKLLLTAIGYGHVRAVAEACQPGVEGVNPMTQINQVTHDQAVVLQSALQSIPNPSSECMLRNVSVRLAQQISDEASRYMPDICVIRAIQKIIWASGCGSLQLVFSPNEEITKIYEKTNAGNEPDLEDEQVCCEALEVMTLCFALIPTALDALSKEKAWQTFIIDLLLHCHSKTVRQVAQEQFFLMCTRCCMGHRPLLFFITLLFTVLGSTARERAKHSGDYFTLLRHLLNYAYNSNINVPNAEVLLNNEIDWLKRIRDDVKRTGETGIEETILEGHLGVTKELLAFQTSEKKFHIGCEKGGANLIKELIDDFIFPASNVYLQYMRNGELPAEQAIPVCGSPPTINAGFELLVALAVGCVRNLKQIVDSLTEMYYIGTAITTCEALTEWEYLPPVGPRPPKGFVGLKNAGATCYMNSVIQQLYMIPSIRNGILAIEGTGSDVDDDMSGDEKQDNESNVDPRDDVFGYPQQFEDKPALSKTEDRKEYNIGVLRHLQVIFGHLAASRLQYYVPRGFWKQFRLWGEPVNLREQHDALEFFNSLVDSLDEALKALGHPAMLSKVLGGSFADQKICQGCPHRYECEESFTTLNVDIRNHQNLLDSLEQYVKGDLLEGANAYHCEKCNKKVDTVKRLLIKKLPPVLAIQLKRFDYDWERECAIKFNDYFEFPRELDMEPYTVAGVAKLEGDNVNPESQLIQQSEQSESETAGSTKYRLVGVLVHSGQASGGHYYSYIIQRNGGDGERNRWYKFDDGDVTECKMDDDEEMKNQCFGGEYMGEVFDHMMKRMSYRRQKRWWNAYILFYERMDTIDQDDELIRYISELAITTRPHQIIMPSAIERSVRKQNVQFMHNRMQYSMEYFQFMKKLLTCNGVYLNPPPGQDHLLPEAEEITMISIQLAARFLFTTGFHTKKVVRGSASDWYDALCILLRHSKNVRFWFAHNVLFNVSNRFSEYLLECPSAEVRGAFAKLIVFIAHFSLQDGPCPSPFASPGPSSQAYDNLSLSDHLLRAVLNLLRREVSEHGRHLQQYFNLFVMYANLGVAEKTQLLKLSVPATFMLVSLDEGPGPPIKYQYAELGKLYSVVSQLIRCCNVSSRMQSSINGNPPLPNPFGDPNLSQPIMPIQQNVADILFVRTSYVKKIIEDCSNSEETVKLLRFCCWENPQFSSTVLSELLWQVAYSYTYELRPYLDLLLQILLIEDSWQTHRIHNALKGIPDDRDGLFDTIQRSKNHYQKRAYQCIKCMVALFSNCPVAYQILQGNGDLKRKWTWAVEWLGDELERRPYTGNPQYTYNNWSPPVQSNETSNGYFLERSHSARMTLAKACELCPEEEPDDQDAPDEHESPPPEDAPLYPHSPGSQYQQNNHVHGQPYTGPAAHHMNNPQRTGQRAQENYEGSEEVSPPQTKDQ
# Procedure: HA-Ub-VS is commonly used to label DUBs in cell lysates. […] A. and B. K562 cell lysates were treated with compound for 40 minutes prior to activity labeling with HA-Ub-VS (1.5 μM) for 20 minutes. Samples were analyzed by SDS-PAGE and immunoblotting with anti-HA antibody. C. […] Values were derived by fitting to the in Prism.
# [3] = tested on: DUBs; experiment: A-ring SAR: total ubiquitin pool in HEK293T lysates overexpressing ubiquitin-HA, western blot; assay type: biochemical, human; conditions: 1.5 h, compounds numbered as in FIG. 3
# Procedure: HEK293T lysates overexpressing ubiquiting-HA were treated with the stated compound for 1.5 h and the total ubiquitin pool was analyzed by western blot (HA). […] Similar data were obtained for Cos-1 lysates.
# [4] = tested on: MCF7 cells; experiment: viability and cell cycle of MCF7 cells (Alamar Blue, FACS); conditions: Alamar Blue
# Procedure: (§5) MCF7 cells were dosed every 2 hours with the indicated concentration of C15. After 6 hours, cells were lysed by freeze thaw and then sonicated in 0.5% SDS. […] MCF7 cells were treated under the stated conditions then analyzed for cell cycle. […] G. Cells treated with C17 (25 μM), dosed every 24 hours. H. Cells treated with C17 (50 μM), dosed every 24 hours. […] These cells were left for 72 h (single dose) after which time the total number of viable cells was analyzed using Alamar Blue®. All data are n≧4 showing mean+/−s.e.m. K. MCF7 cells were plated with C17 for 24 hours after which time the total number of viable cells was measured by Alamar Blue®.
# (§6) All cells were grown at 37° C. in a 5% CO2 humidified atmosphere in DMEM supplemented with 10% heat inactivated FBS, 1× glutamax, and 1× penicillin/streptomycin. […] Proliferation assays were conducted by plating cells at 5% confluence in 96 well plates together with compound or 0.1% DMSO. Cells were allowed to grow for 72 hours (a 24 h dosing regimen was used for carbonate compounds) and then Alamar Blue® was added and number of cells was measured by fluorescence on a microplate reader.
# [5] = tested on: HEK 293T cells; experiment: accumulation of K48- and K63-linked Ub species in HEK 293T cells; assay type: cell-based, human; conditions: 50 μM, 2 h
# Procedure: FIG. 32 depicts data showing that diphenyl carbonates inhibit DUBs in HEK 293T cells. A. Viability of HEK 293T cells assessed by the propidium iodide exclusion method: diphenyl carbonate (100 μM), bortezomib (V, 20 μM) and G5 (2 μM). N≧3, mean+/−s.d. B. HEK 293T cells were treated with the stated compounds (50 μM) for 2 h and then assayed for the accumulation of K48-linked Ub species. C. As in A, but K63-linked Ub was assayed. D. HEK 293T cells were treated with C14, C15, C17, C18 (100 μM) or DMSO for 2 hours, then harvested, lysed and treated with HA-Ub-VS. After 30 min, lysates were analyzed by SDS-PAGE and probed for HA, tubulin and actin. An intervening lane was removed for clarity. E. HEK 293T cells expressing Ub-G76V-GFP were treated with diphenyl carbonates (100 μM), bortezomib (20 μM) and G5 (2 μM). […] N>3, Mean+/−s.d. See also FIG. 39. […]
# [6] = tested on: USP9x, USP19, USP7/8, USP28/15; experiment: HA-Ub-VS activity profiling in cell lysates, USPs; assay type: biochemical, human
# Procedure: (§1) HA-ubiquitin vinylsulfone (HA-Ub-VS) irreversibly labels DUBs by modifying the catalytic cysteine residue Inhibition of the DUB prevents HA-Ub-VS labeling and the band is. […] The interaction with UCHL1/3 is reversible.
# (§2) Lysate labeling assay on untransfected cells (1.5 mg/mL) was run with the stated concentration of inhibitor (or 1% DMSO control) for between 19-60 mins. After this time HA-Ub-VS (1.5-0.7 μM) was added and incubated for 19 mins. After this time reaction mixture (9 μL) was removed and quenched in 2× (final concentration) reducing loading buffer. For recovery experiments, a lysate of 6 mg/mL was treated with saturating compound C14 (250 μM) and incubated for 40 mins. Afterward, the lysate was diluted to 0.6 mg/mL (final concentration of inhibitor 25 μM) in lysis buffer (final volume 100 μL), then HA-Ub-VS was added. Aliquots (15 μL) were removed at the stated time (5-119 mins) and immediately quenched in 2× (final concentration) reducing loading buffer. For all HA-Ub-VS experiments samples in loading buffer were heated only to 37° C. prior to loading on a gel. This assay is highly susceptible to concentration of lysate and HA-Ub-VS. Cell experiments were carried out as above with some modifications. For Cos-1 and MCF-7 cells, after trypsinization, media with compound was added to give a final concentration of compound equal to that used in the assay. Cell pellets were lysed on an ice/salt bath with a temperature of −5° C. and lysate was centrifuged for only 5 mins.
# (§3) HA-Ub-VS is an irreversible inhibitor of DUBs that is widely used in activity profiling. If the DUB inhibitors react to form a thiocarbonylated enzyme as proposed (FIG. 29B), then HA-Ub-VS labeling will be blocked. Treatment of HEK 293T lysates with HA-Ub-VS produced the characteristic pattern of protein bands at 250, 150-100, 45, 38 and 36 kDa, generally ascribed to USP9x (292 kDa), USP19 (146 kDa), USP7/8 (128 and 127 kDa, respectively), USP28/15 (122 and 112 kDa, respectively), UCH-L5 (38 kDa), UCH-L3 (26 kDa) and UCH-L1 (25 kDa) as depicted in FIG. 31.
# (§4) The effect of diphenylcarbonates on HA-Ub-VS labeling was assessed to investigate the selectivity of DUB inhibition. Lysates were preincubated with diphenyl carbonates (75 μM), then treated with HA-Ub-VS (FIG. 31A). […] These C17 and C22-sensitive DUBs are most likely USP9x, USP19, USP7/8 and UCHL5, based on molecular weight (FIGS. 31B and 38). The identity of USP7 was confirmed by immunoblotting (FIG. 38F). […] Similar behavior was observed on Cos-1 cell lysates (FIG. 38B).
# [7] = tested on: UCH-L5, UCH-L3, UCH-L1; experiment: HA-Ub-VS activity profiling in cell lysates, UCH-Ls; assay type: biochemical, human
# Procedure: as §1, §2, §3, §4
# [8] = tested on: MCF7 cells
# Procedure: as §5, §6
# [9] = HEK 293T lysates, 75 μM, 30 minutes preincubation
structure (smiles),measurement,setting,value
NCc1ccc(CC(=O)Oc2ccccc2)cc1 [Compound C10],stabilization of the HMW-Ub pool,[1],nor the analogous esters (C9 and C10) stabilized HMW-Ub
CC(C)(C)OC(=O)NCc1ccc(NC(=S)Oc2ccc(Cl)cc2)cc1 [TCM28],EC50,[2],45 ± 8 µM
"CC(C)(C)OC(=O)NCc1ccc(OC(=O)Oc2ccc(Cl)cc2)cc1 [compound 16, N-Boc 4-(aminomethyl)phenyl(4-chlorophenyl)carbonate]",inhibition (total ubiquitin pool),[3],not an efficient inhibitor
"CC(C)(C)OC(=O)NCc1ccc(OC(=O)Oc2ccc(Cl)cc2)cc1 [Compound C23, N-Boc 4-(aminomethyl)phenyl(4-chlorophenyl)carbonate]","DUB inhibitory activity, SAR in words",[1],Inhibitory activity was not recovered
CC(C)(C)OC(=O)NCc1ccc(OC(=O)Oc2ccc3ccccc3c2)cc1 [Compound C19],"DUB inhibitory activity, SAR in words",[1],Inhibitory activity was not recovered
CC(C)CNCc1ccc(OC(=O)Oc2ccc3ccccc3c2)cc1.Cl [compound 10],inhibition (total ubiquitin pool),[3],have some potency
CC(C)(C)OC(=O)NCc1ccc(OC(=O)Oc2ccccc2)cc1 [Compound C3],"DUB inhibitory activity, SAR in words",[1],activity was lost
"NCc1ccc(OC(=O)Oc2ccc(F)cc2)cc1 [Compound C11, 4-(aminomethyl)phenyl(4-fluorophenyl)carbonate]","DUB inhibitory activity, SAR in words",[1],had no effect on inhibitory activity
"Oc1ccc2ccccc2c1 [Compound 2-Naphthol, 2-Naphthol]","cytotoxicity after single dose, 72 h",[4],not cytotoxic
NCc1ccc(OC(=O)Cc2ccccc2)cc1 [Compound C9],stabilization of the HMW-Ub pool,[1],nor the analogous esters (C9 and C10) stabilized HMW-Ub
CC(C)CNCc1ccc(OC(=O)Oc2ccc3ccccc3c2)cc1 [Compound C21],"DUB inhibitory activity, SAR in words",[1],somewhat deleterious
NCc1ccc(NC(=O)Oc2ccccc2)cc1 [Compound C8],stabilization of the HMW-Ub pool,[1],"Neither the analogous carbamates (C7 and C8, FIG. 30 and FIG. 36), nor the analogous esters (C9 and C10) stabilized HMW-Ub"
"Cc1ccc(OC(=O)Oc2ccc(CN)cc2)cc1 [Compound C12, 4-(aminomethyl)phenyl(4-methylphenyl)carbonate]","DUB inhibitory activity, SAR in words",[1],had no effect on inhibitory activity
NCc1ccc(OC(=O)Nc2ccccc2)cc1 [Compound C7],stabilization of the HMW-Ub pool,[1],"Neither the analogous carbamates (C7 and C8, FIG. 30 and FIG. 36), nor the analogous esters (C9 and C10) stabilized HMW-Ub"
O=C(Oc1ccccc1)Oc1ccc(CNCc2ccc(Cl)cc2)cc1 [Compound C5],stabilization of the HMW-Ub pool,[1],inhibited the decomposition of the HMW-Ub pool
same,"DUB inhibitory activity, SAR in words",[1],retained DUB inhibitory activity
"COc1ccc(OC(=O)Oc2ccc(CN)cc2)cc1 [Compound C13, 4-(aminomethyl)phenyl(4-methoxyphenyl)carbonate]","DUB inhibitory activity, SAR in words",[1],had no effect on inhibitory activity
N=C(N)NCc1ccc(OC(=O)Oc2ccc3ccccc3c2)cc1 [Compound C22],accumulation of K48-linked HMW-Ub,[5],failed to cause the accumulation of HMW-Ub
same,HA-Ub-VS labeling of USPs,[6]; [9],decreased HA-Ub-VS labeling of several USPs
same,"HA-Ub-VS labeling, dose response",[6]; at 12 μM,significantly inhibited the labeling of several high molecular weight proteins
same,"DUB inhibitory activity, SAR in words",[1],efficacious
same,HA-Ub-VS labeling of UCHL enzymes,[7]; [9],relatively little effect on the UCHL enzymes
same,"inhibition of UCH-L1/3/5, dose response",[7]; below 50 μM,little inhibition of UCH-L1/3/5 was observed below 50 μM
"NCc1ccc(O)cc1 [aminomethylphenol, 4-(aminomethyl)phenol]","cytotoxicity after single dose, 72 h",[8],not cytotoxic
CC(C)(C)CNCc1ccc(OC(=O)Oc2ccc3ccccc3c2)cc1.Cl [compound 11],inhibition (total ubiquitin pool),[3],have some potency
"NCc1ccc(OC(=O)Oc2ccccc2Cl)cc1 [Compound C16, 4-(aminomethyl)phenyl(2-chlorophenol)carbonate]","DUB inhibitory activity, SAR in words",[1],improved potency relative to C4
CC(C)(C)OC(=O)NCc1ccc(NC(=S)Oc2ccccc2)cc1 [TCM23],EC50,[2],> 50 µM
CC(C)(C)CNCc1ccc(OC(=O)Oc2ccc3ccccc3c2)cc1 [Compound C20],accumulation of K48-linked HMW-Ub,[5],failed to cause the accumulation of HMW-Ub
same,"DUB inhibitory activity, SAR in words",[1],inhibitory activity was retained
